Experimental data taken from patent publication US20120156333A1, “STABILIZED BETA CRYPTOXANTHIN-CONTAINING WATER AND THE USE THEREOF” (ARKRAY, INC., priority 2010, published 2012).

Key:
[1] = compound of structural formula (1); stated as known; cited from earlier work
[2] = β cryptoxanthin stabilizing test, Example 1B (water from paste, varied β cryptoxanthin concentration, stored at 45° C.); type: physicochemical
Procedure: The prepared paste derived from Citrus unshiu and water were mixed. Thus, β cryptoxanthin-containing waters were prepared. In the mixing, concentrations of the β cryptoxanthin were set to predetermined parts by mass with respect to 100 parts by mass of a combination of the water and components contained in the water. The predetermined parts by mass were 0.0031, 0.0044, 0.0062, 0.0086, 0.0176, and 0.0244 parts by mass. Thus, six types of β cryptoxanthin-containing waters each having a different concentration of the β cryptoxanthin were prepared. Each of the β cryptoxanthin-containing waters was sufficiently stirred. Thereafter 90 g of the resultant β cryptoxanthin-containing water was filled in an aluminum pouch, which was then sterilized under the condition at 85° C. for 30 minutes. As a comparative example, two types of β cryptoxanthin-containing waters were prepared in the same manner as described above except that the concentrations of the β cryptoxanthin were set to 0.0011 and 0.0016 parts by mass.
Six types of the β cryptoxanthin-containing waters of the example and two types of β cryptoxanthin-containing waters of the comparative example were stored at 45° C. for one month. Sampling was conducted on a storage start date and after one month from the storage start date. The respective amounts of β cryptoxanthin in samples were measured by HPLC as shown below. Then, assuming that the amount of β cryptoxanthin on the storage start date was 100%, residual ratios of β cryptoxanthin were determined.
The samples were treated at 70° C. for 30 minutes under alkaline conditions before being subjected to HPLC. By this treatment, β cryptoxanthin in the samples was saponified and was converted to a free form. After the treatment, the samples were subjected to a liquid-liquid extraction and were then concentrated. Concentrated samples thus obtained were used as samples for HPLC.
In the measurements of the amounts of β cryptoxanthin by HPLC, a HPLC system to which a column (J′sphere ODS-M80 (product name) with 250×4.6 mm I.D, produced by YMC Co., Ltd.) had been connected was used, and absorbances at 455 nm were measured by a UV detector (L-4200H (product name), produced by Hitachi Ltd.). Conditions of the column were as follows. • Mobile phase: acetonitrile/tetrahydrofuran (volume ratio: 95/5) containing 0.1% acetic acid and 50 ppm of α-tocopherol • Flow rate: 1.0 mL/minute • Column temperature: 55° C.

[3] = β cryptoxanthin stabilizing test, Example 3A (water from Citrus unshiu concentrated liquid with additive L-ascorbic acid, stored at 40° C.); type: physicochemical; conditions: 0.0015 parts by mass β cryptoxanthin (concentrated liquid) in water
Procedure: (§1) The prepared concentrated liquid derived from Citrus unshiu and water were mixed. Thus, a mixed solution was prepared. The mixing was conducted so that a mass ratio between β cryptoxanthin contained in the concentrated liquid and the mixed water became […] (0.0015 parts by mass of β cryptoxanthin with respect to 100 parts by mass of finally obtained β cryptoxanthin-containing water). Vitamin C (L-ascorbic acid) was added to the mixed solution, which was then mixed by stirring. Thus, β cryptoxanthin-containing waters were prepared. The total amounts of L-ascorbic acid in the respective β cryptoxanthin-containing waters were set to 0.005, 0.01, 0.02, 0.1, and 0.2 parts by mass with respect to 100 parts by mass of entire β cryptoxanthin-containing water by adding vitamin C. 50 g of five types of the β cryptoxanthin-containing waters were filled in the respective brown bottles. Thereafter, the brown bottles were subjected to a heat sterilization treatment under the condition at 90° C. for 30 minutes, which were then stored at 40° C. Sampling was conducted on a storage start date and after two months from the same. The respective amounts of β cryptoxanthin in samples were measured in the same manner as in Example 1A. Then, assuming that the amount of β cryptoxanthin on the storage start date was 100%, residual ratios of β cryptoxanthin were determined.

[4] = Storage stability at 20° C. and 25° C. calculated by Arrhenius equation, Example 4B; type: physicochemical; conditions: for possible storage period in a stable state: β cryptoxanthin-containing waters of Examples 1B, 2B, and 3B
Procedure: With respect to the β cryptoxanthin-containing waters prepared in Examples 1B, 2B, and 3B, storage stability at 20° C. and 25° C. was determined. Determination of the storage stability was performed in the same manner as in Example 4A.

[5] = β cryptoxanthin stabilizing test, Example 2A (water from Citrus unshiu powder with additive L-ascorbic acid, stored at 40° C.); type: physicochemical; conditions: 0.0022 parts by mass β cryptoxanthin (powder) in water
Procedure: as §1, with “powder” for “concentrated liquid”, “(0.0022” for “(0.0015”

[6] = additive L-ascorbic acid 0.005 parts by mass
[7] = additive L-ascorbic acid 0.01 parts by mass
[8] = additive L-ascorbic acid 0.02 parts by mass
[9] = additive L-ascorbic acid 0.1 parts by mass
[10] = additive L-ascorbic acid 0.2 parts by mass

CC1=C(/C=C/C(C)=C/C=C/C(C)=C/C=C/C=C(C)/C=C/C=C(C)/C=C/C2=C(C)C[C@@H](O)CC2(C)C)C(C)(C)CCC1 [β cryptoxanthin]
solubility in water [1]: poorly soluble in water | Residual ratio of β cryptoxanthin Storage for one month (%) ([2]; Comparative Example, β cryptoxanthin 0.0011 parts by mass (paste) in water): 52.5% | Residual ratio of β cryptoxanthin Storage for one month (%) ([2]; Comparative Example, β cryptoxanthin 0.0016 parts by mass (paste) in water): 59.0% | Residual ratio of β cryptoxanthin Storage for one month (%) ([2]; Example, β cryptoxanthin 0.0031 parts by mass (paste) in water): 84.8% | Residual ratio of β cryptoxanthin Storage for one month (%) ([2]; Example, β cryptoxanthin 0.0044 parts by mass (paste) in water): 87.8% | Residual ratio of β cryptoxanthin Storage for one month (%) ([2]; Example, β cryptoxanthin 0.0062 parts by mass (paste) in water): 97.0% | Residual ratio of β cryptoxanthin Storage for one month (%) ([2]; Example, β cryptoxanthin 0.0086 parts by mass (paste) in water): 95.3% | Residual ratio of β cryptoxanthin Storage for one month (%) ([2]; Example, β cryptoxanthin 0.0176 parts by mass (paste) in water): 93.2% | Residual ratio of β cryptoxanthin Storage for one month (%) ([2]; Example, β cryptoxanthin 0.0244 parts by mass (paste) in water): 105.9% | Residual ratio of β cryptoxanthin Storage for two months (%) [3, 6]: 64.3% | Residual ratio of β cryptoxanthin Storage for two months (%) [3, 7]: 64.9% | Residual ratio of β cryptoxanthin Storage for two months (%) [3, 8]: 99.1% | Residual ratio of β cryptoxanthin Storage for two months (%) [3, 9]: 100% | Residual ratio of β cryptoxanthin Storage for two months (%) [3, 10]: 37.9% | storage in a stable state at normal temperature ([4]; Example 4B, normal temperature (20° C. to 25° C.)): two years or more | possible storage period in a stable state ([4]; 20° C.): about 32.7 months | possible storage period in a stable state ([4]; 25° C.): about 15.6 months | Residual ratio of β cryptoxanthin Storage for two months (%) [5, 6]: 62.5% | Residual ratio of β cryptoxanthin Storage for two months (%) [5, 7]: 75.5% | Residual ratio of β cryptoxanthin Storage for two months (%) [5, 8]: 92.0% | Residual ratio of β cryptoxanthin Storage for two months (%) [5, 9]: 100% | Residual ratio of β cryptoxanthin Storage for two months (%) [5, 10]: 31.9%
